# ChEMBL document CHEMBL5247613, “Design, synthesis and biological evaluation of a new class of Hsp90 inhibitors vibsanin C derivatives” (Eur J Med Chem, 2022)
# Calls of active or inactive are those of the source. The rule behind the calls is not given here.
# What was measured:
# [1] = test system: HL-60; experiment: Induction of apoptosis in human HL-60 cells assessed as increase in Bax protein expression at 1 to 10 uM incubated for 24 hrs by western blot analysis; assay type: functional, cell-based; details: dose 1-10 µM
# [2] = test system: HL-60; experiment: Induction of apoptosis in human HL-60 cells assessed as viable cells at 5 uM by AnnexinV-FITC/PI staining based flow cytometry (reference value: 89.7%); assay type: functional; details: read-out: Activity
# [3] = test system: HL-60; experiment: Induction of apoptosis in human HL-60 cells assessed as early apoptotic cells at 10 uM by AnnexinV-FITC/PI staining based flow cytometry (reference value: 1.33%); assay type: functional
# [4] = Toxicity in Kunming mouse xenografted with mouse H22 cells assessed as body weight loss at 100 mg/kg, ip administered for 14 days; assay type: organism-based; details: in vivo, 336 h, time 14 day
# [5] = Inhibition of HSP90 in rabbit reticulocyte lysates incubated for 3 hrs by denatured luciferase refolding assay; assay type: subcellular, Oryctolagus cuniculus
# [6] = Toxicity in Kunming mouse assessed as pain at 500 mg/kg, ip administered as single dose; assay type: organism-based; details: in vivo
# [7] = test system: H22; experiment: Antitumor activity against mouse H22 cells xenografted in Kunming mouse assessed as reduction in tumor volume at 100 mg/kg, ip administered for 14 days; assay type: functional; details: H22, 336 h, time 14 day
# [8] = Toxicity in Kunming mouse assessed as effect on liver at 5 to 500 mg/kg, ip administered as single dose by macroscopic autopsy analysis; assay type: organism-based; details: in vivo, dose 5-500 mg/kg
# [9] = Toxicity in Kunming mouse assessed as effect on sign of illness at 500 mg/kg, ip administered as single dose; assay type: organism-based; details: in vivo
# [10] = Toxicity in Kunming mouse assessed as effect on heart at 5 to 500 mg/kg, ip administered as single dose by macroscopic autopsy analysis; assay type: organism-based; details: in vivo, dose 5-500 mg/kg
# [11] = test system: HL-60; experiment: Induction of apoptosis in human HL-60 cells assessed as late apoptotic cells at 10 uM by AnnexinV-FITC/PI staining based flow cytometry (reference value: 8.57%); assay type: functional
# [12] = Toxicity in Kunming mouse assessed as effect on feeding habits at 500 mg/kg, ip administered as single dose; assay type: organism-based; details: in vivo
# [13] = test system: HL-60; experiment: Induction of apoptosis in human HL-60 cells assessed as necrotic cells at 10 uM by AnnexinV-FITC/PI staining based flow cytometry (reference value: 0.4%); assay type: functional
# [14] = test system: H22; experiment: Antitumor activity against mouse H22 cells xenografted in Kunming mouse assessed as reduction in tumor weight at 100 mg/kg, ip administered for 14 days; assay type: functional; details: H22, 336 h, time 14 day
# [15] = test system: HL-60; experiment: Induction of apoptosis in human HL-60 cells assessed as late apoptotic cells at 5 uM by AnnexinV-FITC/PI staining based flow cytometry (reference value: 8.57%); assay type: functional
# [16] = test system: HL-60; experiment: Induction of apoptosis in human HL-60 cells assessed as late apoptotic cells at 1 uM by AnnexinV-FITC/PI staining based flow cytometry (reference value: 8.57%); assay type: functional
# [17] = Toxicity in ip dosed Kunming mouse administered as single dose; assay type: organism-based; details: in vivo
# [18] = test system: HL-60; experiment: Induction of apoptosis in human HL-60 cells assessed as necrotic cells at 5 uM by AnnexinV-FITC/PI staining based flow cytometry (reference value: 0.4%); assay type: functional
# [19] = test system: Reticulocyte; experiment: Inhibition of HSP90 in rabbit reticulocyte lysates at 10 uM incubated for 3 hrs by denatured luciferase refolding assay; assay type: subcellular; details: Oryctolagus cuniculus
# [20] = test system: HL-60; experiment: Induction of apoptosis in human HL-60 cells assessed as decrease in Bcl2 protein expression at 1 to 10 uM incubated for 24 hrs by western blot analysis; assay type: functional, cell-based; details: dose 1-10 µM
# [21] = Toxicity in Kunming mouse assessed as effect on spleen at 5 to 500 mg/kg, ip administered as single dose by macroscopic autopsy analysis; assay type: organism-based; details: in vivo, dose 5-500 mg/kg
# [22] = test system: HL-60; experiment: Induction of apoptosis in human HL-60 cells assessed as necrotic cells at 1 uM by AnnexinV-FITC/PI staining based flow cytometry (reference value: 0.4%); assay type: functional
# [23] = test system: HL-60; experiment: Induction of apoptosis in human HL-60 cells assessed as late apoptotic cells at 20 uM by AnnexinV-FITC/PI staining based flow cytometry (reference value: 8.57%); assay type: functional
# [24] = test system: HL-60; experiment: Induction of apoptosis in human HL-60 cells assessed as early apoptotic cells at 5 uM by AnnexinV-FITC/PI staining based flow cytometry (reference value: 1.33%); assay type: functional
# [25] = test system: SMMC-7721; experiment: Antiproliferative activity against human SMMC-7721 cells assessed as reduction in cell viability incubated for 48 hrs by MTT assay; assay type: functional, cell-based; details: SMMC-7721, 48 h
# [26] = Toxicity in Kunming mouse assessed as effect on kidney at 5 to 500 mg/kg, ip administered as single dose by macroscopic autopsy analysis; assay type: organism-based; details: in vivo, dose 5-500 mg/kg
# [27] = Toxicity in Kunming mouse assessed as normal animal behaviour at 500 mg/kg, ip administered as single dose; assay type: organism-based; details: in vivo
# [28] = molecular target: T1, Heat shock protein HSP90 (Homo sapiens) (UniProt P07900+P08238); experiment: Inhibition of HSP90 in human HL-60 cells assessed as decrease in CDK4 protein expression incubated for 24 hrs by western blot analysis; assay type: cell-based; details: dose 1-10 µM
# [29] = Toxicity in Kunming mouse assessed as effect on physical appearance at 500 mg/kg, ip administered as single dose; assay type: organism-based; details: in vivo
# [30] = test system: HL-60; experiment: Induction of apoptosis in human HL-60 cells assessed as increase in caspase-3 cleavage incubated for 24 hrs by western blot analysis; assay type: functional, cell-based; details: dose 1-10 µM
# [31] = test system: SW480; experiment: Antiproliferative activity against human SW480 cells assessed as reduction in cell viability incubated for 48 hrs by MTT assay; assay type: functional, cell-based; details: SW480, 48 h
# [32] = molecular target: T1, Heat shock protein HSP90 (Homo sapiens); experiment: Inhibition of HSP90 in human HL-60 cells assessed as increase in HSP27 protein expression incubated for 24 hrs by western blot analysis; assay type: cell-based; details: dose 1-10 µM
# [33] = Solubility of the compound in aqueous NMR buffer; assay type: physicochemical
# [34] = test system: HL-60; experiment: Induction of apoptosis in human HL-60 cells assessed as viable cells at 1 uM by AnnexinV-FITC/PI staining based flow cytometry (reference value: 89.7%); assay type: functional; details: read-out: Activity
# [35] = Toxicity in Kunming mouse assessed as effect on lung at 5 to 500 mg/kg, ip administered as single dose by macroscopic autopsy analysis; assay type: organism-based; details: in vivo, dose 5-500 mg/kg
# [36] = test system: HL-60; experiment: Induction of apoptosis in human HL-60 cells assessed as early apoptotic cells at 1 uM by AnnexinV-FITC/PI staining based flow cytometry (reference value: 1.33%); assay type: functional
# [37] = test system: MCF7; experiment: Antiproliferative activity against human MCF7 cells assessed as reduction in cell viability incubated for 48 hrs by MTT assay; assay type: functional, cell-based; details: MCF7, 48 h
# [38] = test system: HL-60; experiment: Induction of apoptosis in human HL-60 cells assessed as increase in PARP cleavage incubated for 24 hrs by western blot analysis; assay type: functional, cell-based; details: dose 1-10 µM
# [39] = Toxicity in Kunming mouse assessed as injury at 500 mg/kg, ip administered as single dose; assay type: organism-based; details: in vivo
# [40] = test system: HL-60; experiment: Antiproliferative activity against human HL-60 cells assessed as reduction in cell viability incubated for 48 hrs by MTT assay; assay type: functional, cell-based; details: HL-60, 48 h
# [41] = test system: HL-60; experiment: Induction of apoptosis in human HL-60 cells assessed as necrotic cells at 20 uM by AnnexinV-FITC/PI staining based flow cytometry (reference value: 0.4%); assay type: functional
# [42] = test system: HL-60; experiment: Induction of apoptosis in human HL-60 cells assessed as viable cells at 20 uM by AnnexinV-FITC/PI staining based flow cytometry (reference value: 89.7%); assay type: functional; details: read-out: Activity
# [43] = test system: HL-60; experiment: Induction of apoptosis in human HL-60 cells assessed as early apoptotic cells at 20 uM by AnnexinV-FITC/PI staining based flow cytometry (reference value: 1.33%); assay type: functional
# [44] = test system: A549; experiment: Antiproliferative activity against human A549 cells assessed as reduction in cell viability incubated for 48 hrs by MTT assay; assay type: functional, cell-based; details: A549, 48 h
# [45] = test system: HL-60; experiment: Induction of apoptosis in human HL-60 cells assessed as viable cells at 10 uM by AnnexinV-FITC/PI staining based flow cytometry (reference value: 89.7%); assay type: functional; details: read-out: Activity
# [46] = test system: Reticulocyte; experiment: Inhibition of HSP90 in rabbit reticulocyte lysates at 500 uM incubated for 3 hrs by denatured luciferase refolding assay; assay type: subcellular; details: Oryctolagus cuniculus
# [47] = molecular target: T1, Heat shock protein HSP90 (Homo sapiens); experiment: Binding affinity to full length HSP90 (unknown origin) expressed in Escherichia coli BL21(DE3) cells at 20 uM by NMR STD assay
smiles,measurement,setting,value
CC(C)=CCC[C@@]1(C)CC=C(CF)c2oc(C)cc2[C@@H]1/C=C/OC(=O)C=C(C)C,Activity,[1],Active
same,viability at 5 µM,[2],83%
same,Activity,[3],4.98%
same,Activity,[4],Non-Toxic
same,IC50,[5],0.39 µM
same,Activity,[6],Non-Toxic
same,inhibition in vivo at 100 mg/kg,[7],48.4%
same,Activity,[8],Non-Toxic
same,Activity,[9],Non-Toxic
same,Activity,[10],Non-Toxic
same,Activity,[11],50.4%
same,Activity,[12],Non-Toxic
same,Activity,[13],6.29%
same,inhibition in vivo at 100 mg/kg,[14],42.4%
same,Activity,[15],12.8%
same,Activity,[16],11%
same,LD50,[17],> 500 mg/kg
same,Activity,[18],0.22%
same,inhibition,[19],72.2%
same,Activity,[20],Active
same,Activity,[21],Non-Toxic
same,Activity,[22],0.27%
same,Activity,[23],73.3%
same,Activity,[24],2.87%
same,IC50,[25],11.9 µM
same,Activity,[26],Non-Toxic
same,Activity,[27],Non-Toxic
same,inhibition,[28],Dose-Dependent Effect
same,Activity,[29],Non-Toxic
same,Activity,[30],Dose-Dependent Effect
same,IC50,[31],20 µM
same,inhibition,[32],Dose-Dependent Effect
same,solubility,[33],Insoluble
same,viability at 1 µM,[34],87.1%
same,Activity,[35],Non-Toxic
same,Activity,[36],1.57%
same,IC50,[37],17.7 µM
same,Activity,[38],Dose-Dependent Effect
same,Activity,[39],Non-Toxic
same,IC50,[40],3.69 µM
same,Activity,[41],3.45%
same,viability at 20 µM,[42],19.5%
same,Activity,[43],3.78%
same,IC50,[44],> 40 µM
same,viability at 10 µM,[45],38.4%
CO[C@@H]1[C@@H](OC(N)=O)[C@@H](O)[C@H](Oc2ccc3c(O)c(NC(=O)c4ccc(O)c(CC=C(C)C)c4)c(=O)oc3c2C)OC1(C)C [NOVOBIOCIN],IC50,[5],468 µM
same,inhibition,[46],78.9%
CC(C)=CCC[C@@]1(C)CC=C(COC(=O)CCC(=O)O)c2oc(C)cc2[C@@H]1/C=C/OC(=O)C=C(C)C,IC50,[5],0.27 µM
same,Activity,[47],Active
same,inhibition,[19],88.2%
same,IC50,[25],> 40 µM
same,inhibition,[28],Dose-Dependent Effect
same,IC50,[31],> 40 µM
same,inhibition,[32],Dose-Dependent Effect
same,IC50,[37],> 40 µM
same,IC50,[40],16.9 µM
same,IC50,[44],> 40 µM
